According to ChEMBL document CHEMBL1201861, “Genomics of Drug Sensitity in Cancer screening data, Wellcome Trust Sanger Institute”:

Tests used:
Assay in all cases: cells
SW684 = type: functional, cell-based, Homo sapiens; conditions: Homo sapiens, SW684; read-out: IC50;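 note: growth inhibition of human SW684 cells, measured by a cell viability assay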
Description: SANGER: Inhibition of human SW684 cell growth in a cell viability assay.

OMC-1 = type: functional, cell-based, Homo sapiens; conditions: Homo sapiens, OMC-1;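 note: growth inhibition of the OMC-1 cell line, measured by a cell viability assay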
Description: SANGER: Inhibition of human OMC-1 cell growth in a cell viability assay.

IST-MEL1 = type: functional, cell-based, Homo sapiens; conditions: Homo sapiens, IST-MEL1;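 note: growth inhibition of the cell line, read out with a cell viability assay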
Description: SANGER: Inhibition of human IST-MEL1 cell growth in a cell viability assay.

MZ1-PC = type: functional, cell-based, Homo sapiens; conditions: Homo sapiens, MZ1-PC;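 note: cell viability assay measuring growth inhibition of human MZ1-PC cells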
Description: SANGER: Inhibition of human MZ1-PC cell growth in a cell viability assay.

TK-10 = type: functional, cell-based, Homo sapiens; conditions: Homo sapiens, TK-10;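 note: growth inhibition of TK-10 cells, read out in a cell viability assay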
Description: SANGER: Inhibition of human TK10 cell growth in a cell viability assay.

SK-PN-DW = type: functional, cell-based, Homo sapiens; conditions: Homo sapiens, SK-PN-DW;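 note: growth inhibition measured with a viability assay on these cells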
Description: SANGER: Inhibition of human SK-PN-DW cell growth in a cell viability assay.

TE-1 = type: functional, cell-based, Homo sapiens; conditions: Homo sapiens, TE-1;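 note: growth inhibition of the human TE-1 cell line, read out with a cell viability assay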
Description: SANGER: Inhibition of human TE-1 cell growth in a cell viability assay.

OCUB-M = type: functional, cell-based; conditions: Homo sapiens;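 note: growth inhibition of the cancer cell line, read out through a cell viability assay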
Description: SANGER: Inhibition of human OCUB-M cell growth in a cell viability assay.

A704 = type: functional, cell-based; conditions: Homo sapiens;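 note: growth inhibition of human A704 cells, read out with a cell viability assay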
Description: SANGER: Inhibition of human A704 cell growth in a cell viability assay.

NCI-H2126 = type: functional, cell-based, Homo sapiens; conditions: Homo sapiens, NCI-H2126;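 note: growth inhibition of the cancer cell line, determined with a cell viability readout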
Description: SANGER: Inhibition of human NCI-H2126 cell growth in a cell viability assay.

MOLT-4 = type: functional, cell-based, Homo sapiens; conditions: Homo sapiens, MOLT-4;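 note: growth inhibition of MOLT-4 cells, determined with a cell viability readout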
Description: SANGER: Inhibition of human MOLT-4 cell growth in a cell viability assay.

RKO = type: functional, cell-based, Homo sapiens; conditions: Homo sapiens, RKO;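 note: growth inhibition of human RKO cells, read out with a cell viability assay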
Description: SANGER: Inhibition of human RKO cell growth in a cell viability assay.

SHP77 = type: functional, cell-based, Homo sapiens, SHP-77; conditions: Homo sapiens, SHP77;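 note: growth inhibition of human SHP-77 cells measured by a cell viability assay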
Description: SANGER: Inhibition of human SHP-77 cell growth in a cell viability assay.

HT-144 = type: functional, cell-based, Homo sapiens; conditions: Homo sapiens, HT-144
Description: SANGER: Inhibition of human HT-144 cell growth in a cell viability assay.

RH-1 = type: functional, cell-based, Homo sapiens; conditions: Homo sapiens, RH-1;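 note: growth inhibition of human RH-1 cells, read out with a cell viability assay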
Description: SANGER: Inhibition of human RH-1 cell growth in a cell viability assay.

SH-4 = type: functional, cell-based; conditions: Homo sapiens;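 note: growth inhibition of SH-4 cells, read out with a cell viability assay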
Description: SANGER: Inhibition of human SH-4 cell growth in a cell viability assay.

LAMA-84 = type: functional, cell-based, Homo sapiens; conditions: Homo sapiens, LAMA-84;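 note: growth inhibition of LAMA-84 cells, read out with a cell viability assay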
Description: SANGER: Inhibition of human LAMA-84 cell growth in a cell viability assay.

COLO-684 = type: functional, cell-based, Homo sapiens; conditions: Homo sapiens, COLO-684
Description: SANGER: Inhibition of human COLO-684 cell growth in a cell viability assay.

HOP-62 = type: functional, cell-based, Homo sapiens; conditions: Homo sapiens, HOP-62;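 note: cell growth inhibition determined with a viability assay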
Description: SANGER: Inhibition of human HOP-62 cell growth in a cell viability assay.

GAK = type: functional, cell-based, Homo sapiens; conditions: Homo sapiens, GAK;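 note: cell growth inhibition read out by a cell viability assay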
Description: SANGER: Inhibition of human GAK cell growth in a cell viability assay.

EOL1 = type: functional, cell-based, Homo sapiens; conditions: Homo sapiens, EOL1;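 note: growth inhibition of EoL-1 cells, read out by a cell viability assay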
Description: SANGER: Inhibition of human EoL-1-cell cell growth in a cell viability assay.

no-10 = type: functional, cell-based, Homo sapiens; conditions: Homo sapiens;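 note: growth inhibition of no-10 cells, read out with a cell viability assay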
Description: SANGER: Inhibition of human no-10 cell growth in a cell viability assay.

MMAC-SF = type: functional, cell-based; conditions: Homo sapiens;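 note: growth inhibition of human MMAC-SF cells, read out with a cell viability assay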
Description: SANGER: Inhibition of human MMAC-SF cell growth in a cell viability assay.

SK-MEL-2 = type: functional, cell-based, Homo sapiens; conditions: Homo sapiens, SK-MEL-2;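 note: growth inhibition of human SK-MEL-2 cells measured with a cell viability assay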
Description: SANGER: Inhibition of human SK-MEL-2 cell growth in a cell viability assay.

U-266 = type: functional, cell-based, Homo sapiens; conditions: Homo sapiens, U-266
Description: SANGER: Inhibition of human U-266 cell growth in a cell viability assay.

697 = type: functional, cell-based, Homo sapiens; conditions: Homo sapiens
Description: SANGER: Inhibition of human 697 cell growth in a cell viability assay.

ES1 = type: functional, cell-based, Homo sapiens; conditions: Homo sapiens, ES1;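 note: growth inhibition of ES1 cells, read out with a cell viability assay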
Description: SANGER: Inhibition of human ES1 cell growth in a cell viability assay.

LU-139 = type: functional, cell-based, Homo sapiens; conditions: Homo sapiens, LU-139
Description: SANGER: Inhibition of human LU-139 cell growth in a cell viability assay.

LS-123 = type: functional, cell-based, Homo sapiens; conditions: Homo sapiens, LS-123
Description: SANGER: Inhibition of human LS-123 cell growth in a cell viability assay.

BT-474 = type: functional, cell-based, Homo sapiens; conditions: Homo sapiens, BT-474
Description: SANGER: Inhibition of human BT-474 cell growth in a cell viability assay.

SCC-15 = type: functional, cell-based, Homo sapiens; conditions: Homo sapiens, SCC-15;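 note: growth inhibition of SCC-15 cells, read out with a cell viability assay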
Description: SANGER: Inhibition of human SCC-15 cell growth in a cell viability assay.

CAS-1 = type: functional, cell-based, Homo sapiens; conditions: Homo sapiens, CAS-1;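 note: growth inhibition of CAS-1 cells, measured with a cell viability assay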
Description: SANGER: Inhibition of human CAS-1 cell growth in a cell viability assay.

HCC1187 = type: functional, cell-based, Homo sapiens; conditions: Homo sapiens, HCC1187;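 note: growth inhibition of HCC1187 cells, read out with a cell viability assay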
Description: SANGER: Inhibition of human HCC1187 cell growth in a cell viability assay.

J-RT3-T3-5 = type: functional, cell-based, Homo sapiens; conditions: Homo sapiens, J-RT3-T3-5;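 note: cell viability assay measuring growth inhibition of human J-RT3-T3-5 cells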
Description: SANGER: Inhibition of human J-RT3-T3-5 cell growth in a cell viability assay.

LB2241-RCC = type: functional, cell-based, Homo sapiens; conditions: Homo sapiens, LB2241-RCC;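 note: cell viability assay measuring how strongly the cultured human renal carcinoma line is prevented from growing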
Description: SANGER: Inhibition of human LB2241-RCC cell growth in a cell viability assay.

ES4 = type: functional, cell-based, Homo sapiens; conditions: Homo sapiens, ES4;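 note: growth inhibition of human ES4 cells, read out by a cell viability assay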
Description: SANGER: Inhibition of human ES4 cell growth in a cell viability assay.

DEL = type: functional, cell-based, Homo sapiens; conditions: Homo sapiens, DEL;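 note: growth inhibition of the human DEL cell line, read out with a cell viability assay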
Description: SANGER: Inhibition of human DEL cell growth in a cell viability assay.

HT = type: functional, cell-based, Homo sapiens; conditions: Homo sapiens, HT
Description: SANGER: Inhibition of human HT cell growth in a cell viability assay.

SF-126 = type: functional, cell-based, Homo sapiens; conditions: Homo sapiens, SF-126;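 note: growth inhibition of human SF126 cells, read out with a cell viability assay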
Description: SANGER: Inhibition of human SF126 cell growth in a cell viability assay.

SK-LMS-1 = type: functional, cell-based, Homo sapiens; conditions: Homo sapiens, SK-LMS-1;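 note: growth inhibition of human SK-LMS-1 cells, read out with a cell viability assay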
Description: SANGER: Inhibition of human SK-LMS-1 cell growth in a cell viability assay.

GI-1 = type: functional, cell-based, Homo sapiens; conditions: Homo sapiens, GI-1;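 note: growth inhibition of human GI-1 cells, measured with a cell viability readout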
Description: SANGER: Inhibition of human GI-1 cell growth in a cell viability assay.

RPMI-8866 = type: functional, cell-based, Homo sapiens; conditions: Homo sapiens, RPMI-8866
Description: SANGER: Inhibition of human RPMI-8866 cell growth in a cell viability assay.

LB2518-MEL = type: functional, cell-based; conditions: Homo sapiens;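 note: growth inhibition of human LB2518-MEL cells, measured with a cell viability assay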
Description: SANGER: Inhibition of human LB2518-MEL cell growth in a cell viability assay.

A3-KAW = type: functional, cell-based, Homo sapiens; conditions: Homo sapiens, A3-KAW;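 note: growth inhibition of human A3-KAW cells, read out with a cell viability assay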
Description: SANGER: Inhibition of human A3-KAW cell growth in a cell viability assay.

K562 = type: functional, cell-based, Homo sapiens; conditions: Homo sapiens, K562
Description: SANGER: Inhibition of human K-562 cell growth in a cell viability assay.

OCI-AML2 = type: functional, cell-based, Homo sapiens; conditions: Homo sapiens, OCI-AML2;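 note: growth inhibition of OCI-AML2 cells, read out with a cell viability assay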
Description: SANGER: Inhibition of human OCI-AML2 cell growth in a cell viability assay.

DJM-1 = type: functional, cell-based, Homo sapiens; conditions: Homo sapiens, DJM-1;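 note: growth inhibition of human DJM-1 cells, read out by a cell viability assay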
Description: SANGER: Inhibition of human DJM-1 cell growth in a cell viability assay.

L-363 = type: functional, cell-based, Homo sapiens; conditions: Homo sapiens, L-363
Description: SANGER: Inhibition of human L-363 cell growth in a cell viability assay.

SW 962 = type: functional, cell-based, Homo sapiens; conditions: Homo sapiens, SW 962;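 note: growth inhibition of human SW962 cells, read out by a cell viability assay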
Description: SANGER: Inhibition of human SW962 cell growth in a cell viability assay.

LB771-HNC = type: functional, cell-based; conditions: Homo sapiens;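 note: growth inhibition of LB771-HNC human cells, read out with a cell viability assay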
Description: SANGER: Inhibition of human LB771-HNC cell growth in a cell viability assay.

NCI-H1299 = type: functional, cell-based; conditions: Homo sapiens;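 note: growth inhibition of human NCI-H1299 cells, read out by a cell viability assay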
Description: SANGER: Inhibition of human NCI-H1299 cell growth in a cell viability assay.

C=CC(=O)N1CCCC(Nc2nc(Nc3ccc(N(C)C(=O)CC)cc3)nc3[nH]cnc23)C1 (stereo not given)
IC50 (SW684): > 10.2 µM | IC50 (OMC-1): > 10.2 µM | IC50 (IST-MEL1): > 10.2 µM | IC50 (MZ1-PC): 7.94 µM | IC50 (TK-10): > 10.2 µM | IC50 (SK-PN-DW): > 10.2 µM | IC50 (TE-1): > 10.2 µM | IC50 (OCUB-M): 2.1 µM | IC50 (A704): > 10.2 µM | IC50 (NCI-H2126): > 10.2 µM | IC50 (MOLT-4): > 10.2 µM | IC50 (RKO): > 10.2 µM | IC50 (SHP77): > 10.2 µM | IC50 (HT-144): > 10.2 µM | IC50 (RH-1): > 10.2 µM | IC50 (SH-4): > 10.2 µM | IC50 (LAMA-84): > 10.2 µM | IC50 (COLO-684): > 10.2 µM | IC50 (HOP-62): > 10.2 µM | IC50 (GAK): > 10.2 µM | IC50 (EOL1): 4.4 µM | IC50 (no-10): > 10.2 µM | IC50 (MMAC-SF): > 10.2 µM | IC50 (SK-MEL-2): > 10.2 µM | IC50 (U-266): > 10.2 µM | IC50 697: > 10.2 µM | IC50 (ES1): > 10.2 µM | IC50 (LU-139): > 10.2 µM | IC50 (LS-123): > 10.2 µM | IC50 (BT-474): > 10.2 µM | IC50 (SCC-15): > 10.2 µM | IC50 (CAS-1): > 10.2 µM | IC50 (HCC1187): > 10.2 µM | IC50 (J-RT3-T3-5): > 10.2 µM | IC50 (LB2241-RCC): > 10.2 µM | IC50 (ES4): > 10.2 µM | IC50 (DEL): > 10.2 µM | IC50 (HT): > 10.2 µM | IC50 (SF-126): > 10.2 µM | IC50 (SK-LMS-1): > 10.2 µM | IC50 (GI-1): > 10.2 µM | IC50 (RPMI-8866): > 10.2 µM | IC50 (LB2518-MEL): > 10.2 µM | IC50 (A3-KAW): > 10.2 µM | IC50 (K562): > 10.2 µM | IC50 (OCI-AML2): > 10.2 µM | IC50 (DJM-1): > 10.2 µM | IC50 (L-363): > 10.2 µM | IC50 (SW 962): 5.16 µM | IC50 (LB771-HNC): > 10.2 µM

CC1=C(/C=C/C(C)=C/C=C/C(C)=C/C(=O)O)C(C)(C)CCC1 [TRETINOIN]
IC50 (SW684): > 10 µM | IC50 (OMC-1): > 10 µM | IC50 (NCI-H1299): > 10 µM | IC50 (IST-MEL1): > 10 µM | IC50 (MZ1-PC): > 10 µM | IC50 (TK-10): > 10 µM | IC50 (SK-PN-DW): > 10 µM | IC50 (TE-1): > 10 µM | IC50 (OCUB-M): > 10 µM | IC50 (A704): > 10 µM | IC50 (NCI-H2126): > 10 µM | IC50 (MOLT-4): > 10 µM | IC50 (RKO): > 10 µM | IC50 (SHP77): > 10 µM | IC50 (HT-144): > 10 µM | IC50 (RH-1): > 10 µM | IC50 (SH-4): > 10 µM | IC50 (LAMA-84): 0.996 µM | IC50 (COLO-684): > 10 µM | IC50 (HOP-62): > 10 µM | IC50 (GAK): > 10 µM | IC50 (no-10): > 10 µM | IC50 (MMAC-SF): > 10 µM | IC50 (SK-MEL-2): > 10 µM | IC50 (U-266): 4.12 µM | IC50 697: > 10 µM | IC50 (ES1): > 10 µM | IC50 (LU-139): > 10 µM | IC50 (LS-123): > 10 µM | IC50 (BT-474): > 10 µM | IC50 (SCC-15): 9.35 µM | IC50 (CAS-1): > 10 µM | IC50 (HCC1187): > 10 µM | IC50 (J-RT3-T3-5): > 10 µM | IC50 (LB2241-RCC): > 10 µM | IC50 (ES4): > 10 µM | IC50 (DEL): > 10 µM | IC50 (HT): > 10 µM | IC50 (SF-126): > 10 µM | IC50 (SK-LMS-1): > 10 µM | IC50 (GI-1): > 10 µM | IC50 (RPMI-8866): > 10 µM | IC50 (LB2518-MEL): > 10 µM | IC50 (A3-KAW): 7.6 µM | IC50 (K562): > 10 µM | IC50 (OCI-AML2): > 10 µM | IC50 (DJM-1): > 10 µM | IC50 (L-363): 2.07 µM | IC50 (SW 962): > 10 µM | IC50 (LB771-HNC): > 10 µM

Cc1cc(N2CCOCC2)cc2[nH]c(-c3c(NC[C@@H](O)c4cccc(Cl)c4)cc[nH]c3=O)nc12
IC50 (SW684): > 5.12 µM | IC50 (OMC-1): > 5.12 µM | IC50 (IST-MEL1): 4.6 µM | IC50 (MZ1-PC): 0.764 µM | IC50 (TK-10): 2.26 µM | IC50 (SK-PN-DW): 3.43 µM | IC50 (TE-1): 0.754 µM | IC50 (OCUB-M): > 5.12 µM | IC50 (A704): 1.04 µM | IC50 (NCI-H2126): 3.98 µM | IC50 (MOLT-4): 4.58 µM | IC50 (RKO): 1 µM | IC50 (SHP77): > 5.12 µM | IC50 (HT-144): 1.82 µM | IC50 (RH-1): > 5.12 µM | IC50 (SH-4): 0.882 µM | IC50 (LAMA-84): > 5.12 µM | IC50 (COLO-684): > 5.12 µM | IC50 (HOP-62): 0.936 µM | IC50 (GAK): > 5.12 µM | IC50 (EOL1): 1.57 µM | IC50 (no-10): > 5.12 µM | IC50 (MMAC-SF): 0.5 µM | IC50 (SK-MEL-2): > 5.12 µM | IC50 (U-266): > 5.12 µM | IC50 697: 1.12 µM | IC50 (ES1): 1.62 µM | IC50 (LU-139): > 5.12 µM | IC50 (LS-123): > 5.12 µM | IC50 (BT-474): > 5.12 µM | IC50 (SCC-15): > 5.12 µM | IC50 (CAS-1): > 5.12 µM | IC50 (HCC1187): > 5.12 µM | IC50 (J-RT3-T3-5): > 5.12 µM | IC50 (LB2241-RCC): > 5.12 µM | IC50 (ES4): 0.622 µM | IC50 (DEL): 2.7 µM | IC50 (HT): > 5.12 µM | IC50 (SF-126): 2.47 µM | IC50 (SK-LMS-1): 4.81 µM | IC50 (GI-1): 0.913 µM | IC50 (RPMI-8866): > 5.12 µM | IC50 (LB2518-MEL): > 5.12 µM | IC50 (A3-KAW): 1.93 µM | IC50 (K562): > 5.12 µM | IC50 (OCI-AML2): 1.31 µM | IC50 (DJM-1): > 5.12 µM | IC50 (L-363): 0.328 µM | IC50 (SW 962): 1.2 µM | IC50 (LB771-HNC): 0.23 µM
